# In patent US6368852B1, “Peptide capable of inducing immune response to human gastric cancer and agent for preventing or treating human gastric cancer, containing the peptide” (Ajinomoto Co., Inc., priority 1995, dated 2002):
# Where no end group is shown, it is not given here.
# Tests used:
# [1] = test system: Tc-HST-2 cells with HST-2 cells expressing HLA-A31 antigen as target cells; test: CTL assay using a TNF-releasing method (Wehi164/MTT); format: cell-based, human; details: peptide final concentration 10 μM, 1 μM or 0.1 μM; HST-2 target cells; target cells to CTL 1:100; 12 hours
# Method: That is, in the TNF-releasing method, the HLA-A31-positive HST-2 or KG-1 cell is mixed with the peptide of the present invention, and the mixture is incubated at 37° C. for 3 hours. Then, Tc-HST-2 cells are added thereto, and the resulting mixture is further incubated for 12 hours. The activity of any TNF released in the supernatant is measured to detect the CTL inducibility.
# The TNF activity can be measured by the method described in Immunogenetics, vol. 35, p. 145 (1992).
# That is, TNF-sensitive Wehi164 cells are mixed with a test sample, and the mixture is incubated for 24 hours. Then, an MTT [3-(4,5-dimethylthiazol-2-yl)-2,5-diphenyl tetrazolium bromide] solution is added to the culture, and the resulting mixture is further incubated for 3 hours. After any formazan converted within mitochondria is dissolved in acid propanol, the amount thereof is measured in terms of an absorbance at OD570 to detect the TNF activity.
# That is, 1×10^4 HST-2 cells expressing HLA-A31 antigen were suspended as target cells in 100 μl of the solution, and 5 μl of each of the above-mentioned four synthetic peptides were added thereto such that the final concentration reached 10 μM, 1 μM or 0.1 μM. The mixture was further incubated under the same conditions for 3 hours to bind the HLA-bound peptide to the HLA molecule. Subsequently, Tc-HST-2 cells (1×10^6 cells/ml) were added thereto in an amount of 100 μl, and the resulting mixture was further incubated for 12 hours under the same conditions.
# After 12 hours of incubation, 30 μl of the supernatant formed was collected, and the TNF activity released in the supernatant was measured to detect the CTL inducibility. The TNF activity was measured by the following method.
# That is, 7×10^4 Wehi164 cells which are TNF-sensitive cells were suspended in 120 μl of the solution, and 30 μl of the above-obtained supernatant were added thereto. The mixture was incubated for 24 hours. […] Then, the absorbance was measured at a wavelength of 570 nm to measure the TNF activity.
# [2] = test system: Tc-HST-2 cells with HST-2 or KG-1 cells expressing HLA-A31 antigen as target cells; test: CTL inducibility by the 51Cr-releasing method (specific cytotoxicity of Tc-HST-2); format: cell-based, human; details: HLA-bound peptide from HST-2 separated by reversed-phase HPLC; target cells to CTL 1:100; 12 hours incubation
# Method: That is, HLA-A31-positive HST-2 or KG-1 cells are radio-labeled with sodium chromate containing ^51Cr, and are then mixed with the HLA-bound peptide separated through reversed phase chromatography. The mixture is incubated at 37° C. for 3 hours, and Tc-HST-2 is then added thereto. The resulting mixture is further incubated for 12 hours. The CTL inducibility can be detected by measuring the radio-activity of ^51Cr released in the supernatant.
# The CTL inducibility of the HPLC elution fractions against Tc-HST-2 cells was measured as follows. […]
# Subsequently, Tc-HST-2 cells (2.5×10^5 cells/ml) were added thereto in an amount of 100 μl, and the mixture was incubated under the same conditions for 12 hours. After 12 hours of incubation, 100 μl of the supernatant formed were collected, and the radioactivity of ^51Cr released in this supernatant was measured using a γ-counter to measure the CTL activity.
# The specific cytotoxicity was calculated using the following formula. […]
# wherein the minimum release value indicates a measured value of a well filled with target cells alone and a value of ^51Cr naturally released from target cells, and the maximum release value indicates a release value when the cells are destroyed by adding a surfactant, 1% Triton x-100, to target cells.
Substance,CTL inducibility of Tc-HST-2 (TNF activity released in the supernatant) [1],"CTL inducibility of Tc-HST-2 (specific cytotoxicity, 51Cr release) [2]"
Peptide 1-7: peptide containing 7 amino acids starting from the N-terminus of Synthetic Peptide 1 (SEQ ID NO: 4) (YSWMDIS),no CTL inducibility,
YSWMDISCW [Peptide 1-9],CTL inducibility of TC-HST-2 was identified,
"YSWMDISCWI [Peptide 1, Tyr Ser Trp Met Asp Ile Ser cys Trp Ile]",,exhibiting the CTL inducibility
YSWMDISC [Peptide 1-8],no CTL inducibility,
